Data as given in patent US10654854B2 (INTRA-CELLULAR THERAPIES, INC., priority 2016, dated 2020).
Where a name gives a salt, the structure may show the parent alone.

Experiments:
[1] = Dynamic Vapour Sorption (DVS); format: physicochemical; details: for DVS total mass uptake: at 95 RH %; for hygroscopicity (assessment from DVS): from total mass uptake at 95 RH %; for DVS Hygroscopicity (%): scale-up synthesis batch
Description: Dynamic Vapour Sorption (DVS): The Dynamic Vapour Sorption studies are performed using a Surface Measurement Systems Ltd. DVS-1 No Video, equipment #2126. The sample is loaded into a balance pan, typically 20-30 mg, and equilibrated at 0% RH. After the material was dried, the RH is increased with 10% per step for 1 hour per increment, ending at 95% RH. After completion of the sorption cycle, the sample was dried using the same method. The software used for data collection is DVSWin v3.01 No Video. Data analysis is performed using DVS Standard Analysis Suite v6.3.0 (Standard).

[2] = hygroscopicity and stability of salt forms (salt screen); format: physicochemical; details: salt form
Description: In an effort to find new salts and polymorphs of ITI-007, an extensive salt screen was undertaken. […] Eventually, a toluenesulfonic acid addition salt (tosylate) was prepared, as described in WO 2009/114181, but no other stable salts were found. Finally, a major salt screen was carried out, wherein the free base compound was studied in different solvent systems and under different conditions, and then systematically screened using a selection of over 100 acids under different conditions and with different solvent, co-solvent and anti-solvent systems, to identify possible salt forms. Following extensive screening and experimentation, the following novel salts were discovered, characterized, and found to be reproducible and stable: oxalate, 4-aminosalicylate, and cyclamate.
(§1) Solubility of free base in various solvents is evaluated, and based on the results of the solubility range, suitable solvents are selected for the salt screen. The salt screen is divided into seven separate screens, using 90 different counter ions, six different solvents, and including four different crystallization methods, slurry experiments, cooling crystallization, evaporation and precipitation experiments. The counterions are selected based upon availability and potential suitability to form pharmaceutically acceptable acid addition salts. They include the class I, II and III acids identified in Stahl P. H., Wermuch C. G. (editors), Handbook of Pharmaceutical Salts, IUPAC (2008).

[3] = biological target: H1 histaminergic (Homo sapiens, UniProt P35367); details: cited from earlier work
H1 histaminergic, sequence (P35367 whole entry): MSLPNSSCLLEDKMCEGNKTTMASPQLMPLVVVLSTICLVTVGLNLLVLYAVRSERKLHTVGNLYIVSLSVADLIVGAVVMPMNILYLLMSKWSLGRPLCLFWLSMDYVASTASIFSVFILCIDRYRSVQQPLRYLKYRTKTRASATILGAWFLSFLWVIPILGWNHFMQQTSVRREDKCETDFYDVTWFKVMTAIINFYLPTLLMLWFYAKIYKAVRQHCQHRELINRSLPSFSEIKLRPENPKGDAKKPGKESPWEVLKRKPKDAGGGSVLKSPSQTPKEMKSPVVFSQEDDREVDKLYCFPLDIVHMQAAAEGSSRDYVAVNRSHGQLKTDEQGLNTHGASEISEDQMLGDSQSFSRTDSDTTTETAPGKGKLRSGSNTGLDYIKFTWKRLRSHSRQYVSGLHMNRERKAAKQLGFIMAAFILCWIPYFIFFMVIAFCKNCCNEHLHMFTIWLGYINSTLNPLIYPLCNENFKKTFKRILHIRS

[4] = solubility of free base in water and organic solvents; format: physicochemical; details: free base form; in water and in many organic solvents
Description: as §1

[5] = test system: muscarinic; details: cited from earlier work
[6] = biological target: T1, 5-HT2C (Homo sapiens, UniProt P28335); details: cited from earlier work
T1 sequence (P28335 33-458): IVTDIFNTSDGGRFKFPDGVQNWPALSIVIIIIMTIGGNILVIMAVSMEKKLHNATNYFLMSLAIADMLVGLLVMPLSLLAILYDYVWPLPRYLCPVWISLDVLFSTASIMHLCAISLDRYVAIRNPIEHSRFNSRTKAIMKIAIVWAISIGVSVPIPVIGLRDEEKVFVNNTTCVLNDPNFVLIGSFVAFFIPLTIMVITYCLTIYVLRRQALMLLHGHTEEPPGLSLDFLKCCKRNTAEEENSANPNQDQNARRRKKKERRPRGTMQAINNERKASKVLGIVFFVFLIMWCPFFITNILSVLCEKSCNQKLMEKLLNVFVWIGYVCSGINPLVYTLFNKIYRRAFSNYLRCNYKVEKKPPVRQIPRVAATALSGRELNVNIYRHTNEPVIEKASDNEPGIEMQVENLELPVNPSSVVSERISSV

DVS total mass uptake [1] [%]	hygroscopicity (assessment from DVS) [1]	DVS Hygroscopicity (%) ([1]; listed as FP-212 cyclamate salt)	stability [2]	DVS Hygroscopicity (%) [1] [%]	solubility [4]	Compound	binding to receptors associated with cognitive and metabolic side effects [3]	binding to receptors associated with cognitive and metabolic side effects [5]	binding to receptors associated with cognitive and metabolic side effects [6]
8	somewhat hygroscopic	8	stable			CN1CCN2c3c(cccc31)[C@@H]1CN(CCCC(=O)c3ccc(F)cc3)CC[C@@H]12 [cyclamate salt, 1-(4-fluoro-phenyl)-4-((6bR,10aS)-3-methyl-2,3,6b,9,10,10a-hexahydro-1H,7H-pyrido[3′,4′:4,5]pyrrolo[1,2,3-de]quinoxalin-8-yl)-butan-1-one]			
5	moderately hygroscopic		stable	5		CN1CCN2c3c(cccc31)[C@@H]1CN(CCCC(=O)c3ccc(F)cc3)CC[C@@H]12 [oxalate salt, 1-(4-fluoro-phenyl)-4-((6bR,10aS)-3-methyl-2,3,6b,9,10,10a-hexahydro-1H,7H-pyrido[3′,4′:4,5]pyrrolo[1,2,3-de]quinoxalin-8-yl)-butan-1-one]			
5	moderately hygroscopic		stable	5		CN1CCN2c3c(cccc31)[C@@H]1CN(CCCC(=O)c3ccc(F)cc3)CC[C@@H]12 [4-aminosalicylate salt, 1-(4-fluoro-phenyl)-4-((6bR,10aS)-3-methyl-2,3,6b,9,10,10a-hexahydro-1H,7H-pyrido[3′,4′:4,5]pyrrolo[1,2,3-de]quinoxalin-8-yl)-butan-1-one]			
					poor solubility	CN1CCN2c3c(cccc31)[C@@H]1CN(CCCC(=O)c3ccc(F)cc3)CC[C@@H]12 [ITI-007, 1-(4-fluoro-phenyl)-4-((6bR,10aS)-3-methyl-2,3,6b,9,10,10a-hexahydro-1H,7H-pyrido[3′,4′:4,5]pyrrolo[1,2,3-de]quinoxalin-8-yl)-butan-1-one]	negligible binding	negligible binding	negligible binding
